Measured values from ChEMBL document CHEMBL4020763, “N-(1H-Pyrazol-3-yl)quinazolin-4-amines as a novel class of casein kinase 1δ/ε inhibitors: Synthesis, biological evaluation and molecular modeling studies” (Bioorg Med Chem Lett, 2017).

Tests used:
HCT-15 [1] = assay: Cytotoxicity against human HCT15 cells by MTT assay; format: functional, cell-based
[2] = molecular target: Glycogen synthase kinase-3 (Sus scrofa) (UniProt B2LUN4+I6LNT8); assay: Inhibition of porcine brain GSK-3 alpha/beta at 10 uM using YRRAAVPPSPSLSRHSSPHQpSEDEEE as substrate after 30 mins in presence of ATP by scintillation counting method relative to control
[3] = molecular target: CDK2/Cyclin A2 (Homo sapiens) (UniProt P24941+P20248); assay: Inhibition of recombinant human CDK2/cyclin A at 10 uM using histone H1 as substrate after 30 mins in presence of ATP by scintillation counting method relative to control; format: protein-complex assay
MDA-MB-231 [4] = assay: Cytotoxicity against human MDA-MB-231 cells by MTT assay; format: functional, cell-based
[5] = molecular target: CDK9/cyclin T1 (Homo sapiens) (UniProt O60563+P50750); assay: Inhibition of recombinant human CDK9/cyclin T expressed in insect cells at 10 uM using YSPTSPSYSPTSPSYSPTSPSKKKK as substrate after 30 mins in presence of ATP by scintillation counting method relative to control
[6] = molecular target: Dual specificity protein kinase CLK1 (Mus musculus, UniProt P22518); assay: Inhibition of recombinant mouse GST-fused CLK1 expressed in Escherichia coli using RS peptide as substrate after 30 mins in presence of ATP by scintillation counting method
Sus scrofa = organism: Sus scrofa; assay: Inhibition of porcine brain CK1-delta/epsilon at 10 uM using CSK peptide as substrate after 30 mins in presence of ATP by scintillation counting method relative to control
Asteroidea = assay: Inhibition of M-phase starfish oocytes CDK1/cyclin B at 10 uM using histone H1 as substrate after 30 mins in presence of ATP by scintillation counting method relative to control
[7] = Growth inhibition of HEK293 cells at 100 uM by MTT assay relative to control; format: cell-based; details: human, read-out: GI
ZR-75-30 [8] = assay: Growth inhibition of human ZR-7530 cells at 100 uM by MTT assay relative to control; format: functional; details: read-out: GI
ZR-75-1 [9] = assay: Growth inhibition of human ZR-75-1 cells at 100 uM by MTT assay relative to control; format: functional; details: read-out: GI
BT-20 [10] = assay: Growth inhibition of human BT20 cells at 100 uM by MTT assay relative to control; format: functional; details: read-out: GI
MDA-MB-468 [11] = assay: Growth inhibition of human MDA-MB-468 cells at 100 uM by MTT assay relative to control; format: functional; details: read-out: GI
PANC-1 [12] = assay: Cytotoxicity against human PANC1 cells by MTT assay; format: functional, cell-based
A549 [13] = assay: Growth inhibition of human A549 cells at 100 uM by MTT assay relative to control; format: functional; details: read-out: GI
[14] = Inhibition of porcine brain CK1-delta/epsilon using CSK peptide as substrate after 30 mins in presence of ATP by scintillation counting method; design: species or system Sus scrofa
PANC-1 [15] = assay: Growth inhibition of human PANC1 cells at 100 uM by MTT assay relative to control; format: functional; details: read-out: GI
BT-20 [16] = assay: Cytotoxicity against human BT20 cells by MTT assay; format: functional, cell-based
A549 [17] = assay: Cytotoxicity against human A549 cells by MTT assay; format: functional, cell-based
HEK293 = assay: Cytotoxicity against HEK293 cells by MTT assay; format: cell-based; details: Homo sapiens
DU-145 = assay: Growth inhibition of human DU145 cells at 100 uM by MTT assay relative to control; format: functional; details: read-out: GI
[18] = molecular target: Cyclin-dependent kinase 5/CDK5 activator 1 (Homo sapiens) (UniProt Q00535+Q15078); assay: Inhibition of recombinant human CDK5/p25 expressed in Escherichia coli at 10 uM using histone H1 as substrate after 30 mins in presence of ATP by scintillation counting method relative to control
MIA PaCa-2 [19] = assay: Cytotoxicity against human MIAPaCa2 cells by MTT assay; format: functional, cell-based
MCF7 [20] = assay: Cytotoxicity against human MCF7 cells by MTT assay; format: functional, cell-based
MIA PaCa-2 [21] = assay: Growth inhibition of human MIAPaCa2 cells at 100 uM by MTT assay relative to control; format: functional; details: read-out: GI
[22] = molecular target: Dual specificity tyrosine-phosphorylation-regulated kinase 1A (Homo sapiens) (UniProt Q13627); assay: Inhibition of recombinant full length human GST-fused DYRK1A expressed in Escherichia coli at 10 uM using RS peptide as substrate after 30 mins in presence of ATP by scintillation counting method relative to control
[23] = molecular target: Dual specificity protein kinase CLK1 (Mus musculus) (UniProt P22518); assay: Inhibition of recombinant mouse GST-fused CLK1 expressed in Escherichia coli at 10 uM using RS peptide as substrate after 30 mins in presence of ATP by scintillation counting method relative to control
MDA-MB-468 [24] = assay: Cytotoxicity against human MDA-MB-468 cells by MTT assay; format: functional, cell-based
[25] = Inhibition of M-phase starfish oocytes CDK1/cyclin B using histone H1 as substrate after 30 mins in presence of ATP by scintillation counting method; design: species or system Asteroidea
MDA-MB-231 [26] = assay: Growth inhibition of human MDA-MB-231 cells at 100 uM by MTT assay relative to control; format: functional; details: read-out: GI
ZR-75-30 [27] = assay: Cytotoxicity against human ZR-7530 cells by MTT assay; format: functional, cell-based
CDK2/Cyclin A2 = CDK2/Cyclin A2 (Homo sapiens, UniProt P24941); assay: Inhibition of recombinant human CDK2/cyclin A using histone H1 as substrate after 30 mins in presence of ATP by scintillation counting method; format: protein-complex assay
[28] = molecular target: Glycogen synthase kinase-3 (Sus scrofa, UniProt B2LUN4+I6LNT8); assay: Inhibition of porcine brain GSK-3 alpha/beta using YRRAAVPPSPSLSRHSSPHQpSEDEEE as substrate after 30 mins in presence of ATP by scintillation counting method
MCF7 [29] = assay: Growth inhibition of human MCF7 cells at 100 uM by MTT assay relative to control; format: functional; details: read-out: GI
HCT-15 [30] = assay: Growth inhibition of human HCT15 cells at 100 uM by MTT assay relative to control; format: functional; details: read-out: GI
ZR-75-1 [31] = assay: Cytotoxicity against human ZR-75-1 cells by MTT assay; format: functional, cell-based

Sequence of Cyclin-dependent kinase 5/CDK5 activator 1 (Homo sapiens) (Q00535 whole entry): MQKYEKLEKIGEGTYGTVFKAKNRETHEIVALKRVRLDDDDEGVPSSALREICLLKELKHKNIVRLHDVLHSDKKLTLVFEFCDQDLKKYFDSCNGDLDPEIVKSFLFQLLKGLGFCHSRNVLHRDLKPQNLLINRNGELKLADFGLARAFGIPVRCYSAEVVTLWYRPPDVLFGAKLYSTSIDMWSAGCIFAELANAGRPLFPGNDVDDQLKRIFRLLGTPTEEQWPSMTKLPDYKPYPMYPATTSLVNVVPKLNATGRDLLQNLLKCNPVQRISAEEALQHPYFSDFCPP
Sequence of Cyclin-dependent kinase 5/CDK5 activator 1 (Homo sapiens) (Q15078 99-307 partner limits assumed): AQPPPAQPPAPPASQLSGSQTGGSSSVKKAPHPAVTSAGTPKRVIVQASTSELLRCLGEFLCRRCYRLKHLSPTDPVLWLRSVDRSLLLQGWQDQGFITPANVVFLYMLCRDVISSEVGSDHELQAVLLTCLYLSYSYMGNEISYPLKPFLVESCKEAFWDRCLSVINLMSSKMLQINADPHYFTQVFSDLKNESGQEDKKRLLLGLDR
Sequence of Dual specificity protein kinase CLK1 (Mus musculus) (P22518 whole entry, looked up, the tested form may be a part): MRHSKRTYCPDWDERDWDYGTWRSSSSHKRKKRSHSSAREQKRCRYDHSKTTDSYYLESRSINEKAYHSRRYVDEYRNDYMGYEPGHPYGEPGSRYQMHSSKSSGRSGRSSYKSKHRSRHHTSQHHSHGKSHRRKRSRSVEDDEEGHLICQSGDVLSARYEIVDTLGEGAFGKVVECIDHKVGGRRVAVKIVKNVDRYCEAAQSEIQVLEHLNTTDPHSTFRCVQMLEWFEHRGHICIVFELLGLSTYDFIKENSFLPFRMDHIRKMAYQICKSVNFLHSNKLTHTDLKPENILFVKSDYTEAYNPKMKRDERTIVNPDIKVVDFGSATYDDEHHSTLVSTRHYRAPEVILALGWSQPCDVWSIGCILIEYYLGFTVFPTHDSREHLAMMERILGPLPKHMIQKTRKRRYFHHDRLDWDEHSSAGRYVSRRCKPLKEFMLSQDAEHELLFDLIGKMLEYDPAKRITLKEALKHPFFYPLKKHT
Sequence of Dual specificity protein kinase CLK1 (P22518 whole entry, the tested form may be a part): as the sequence (P22518 whole entry, looked up, the tested form may be a part) above

Compound COc1cc2ncnc(Nc3n[nH]cc3C#N)c2cc1OC has an IC50 (HCT-15 [1]) greater than 100 µM, an inhibition [2] greater than 50% and an inhibition [3] greater than 50%. The IC50 (MDA-MB-231 [4]) was greater than 100 µM, the inhibition [5] was greater than 50% and the IC50 [6] was greater than 10 µM. It also gave an inhibition (Sus scrofa) greater than 50%, an inhibition (Asteroidea) greater than 50% and an inhibition at 100 µM [7] greater than 50%. For the same compound, the inhibition of growth at 100 µM (ZR-75-30 [8]) was greater than 50%, the inhibition of growth at 100 µM (ZR-75-1 [9]) was greater than 50% and the inhibition of growth at 100 µM (BT-20 [10]) was greater than 50%. For the same compound, the inhibition of growth at 100 µM (MDA-MB-468 [11]) was greater than 50%, the IC50 (PANC-1 [12]) was greater than 100 µM and the inhibition of growth at 100 µM (A549 [13]) was greater than 50%. It also gave an IC50 [14] of less than 10 µM, an inhibition of growth at 100 µM (PANC-1 [15]) greater than 50% and an IC50 (BT-20 [16]) greater than 100 µM. For the same compound, the IC50 (A549 [17]) was greater than 100 µM, the IC50 (HEK293) was greater than 100 µM and the inhibition of growth at 100 µM (DU-145) was greater than 50%. For the same compound, the inhibition [18] was greater than 50%, the IC50 (MIA PaCa-2 [19]) was greater than 100 µM and the IC50 (MCF7 [20]) was greater than 100 µM. It also gave an inhibition of growth at 100 µM (MIA PaCa-2 [21]) greater than 50%, an inhibition [22] greater than 50% and an inhibition [23] greater than 50%. For the same compound, the IC50 (MDA-MB-468 [24]) was greater than 100 µM, the IC50 [25] was greater than 10 µM and the inhibition of growth at 100 µM (MDA-MB-231 [26]) was greater than 50%. The IC50 (ZR-75-30 [27]) was greater than 100 µM, the IC50 (CDK2/Cyclin A2) was greater than 10 µM and the IC50 [28] was greater than 10 µM. For the same compound, the inhibition of growth at 100 µM (MCF7 [29]) was greater than 50%, the inhibition of growth at 100 µM (HCT-15 [30]) was greater than 50% and the IC50 (ZR-75-1 [31]) was greater than 100 µM.
